Measurements as given in patent US12540131B2 (Merck Sharp & Dohme LLC, priority 2019, dated 2026).

Target: GST tagged truncated human mutant G2019S LRRK2 (Homo sapiens (Human), UniProt Q5S007, G2019S)
Experiment: LRRK2 Km ATP LanthaScreen Assay
Type: biochemical
Details: G2019S LRRK2, 134 μM ATP (Km ATP), mean values; for IC50: read-out: LRRK2 pIC50 (converted)
How it was run: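 Enzyme (GST-tagged, truncated) was preincubated with compound for 15 min at RT in 50 mM Tris pH 8.5, 10 mM MgCl2, 0.01% Brij-35, 1 mM EGTA, 2 mM DTT and 0.05 mM orthovanadate. Fluorescein-LRRKtide and 134 μM ATP (Km) were then added for 90 min. EDTA and Tb-anti-pERM antibody stopped the reaction; the TR-FRET 520/495 ratio gave 4-parameter IC50s, reported as mean pIC50.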

Chain of GST tagged truncated human mutant G2019S LRRK2 (Q5S007 970-2527 G2019S): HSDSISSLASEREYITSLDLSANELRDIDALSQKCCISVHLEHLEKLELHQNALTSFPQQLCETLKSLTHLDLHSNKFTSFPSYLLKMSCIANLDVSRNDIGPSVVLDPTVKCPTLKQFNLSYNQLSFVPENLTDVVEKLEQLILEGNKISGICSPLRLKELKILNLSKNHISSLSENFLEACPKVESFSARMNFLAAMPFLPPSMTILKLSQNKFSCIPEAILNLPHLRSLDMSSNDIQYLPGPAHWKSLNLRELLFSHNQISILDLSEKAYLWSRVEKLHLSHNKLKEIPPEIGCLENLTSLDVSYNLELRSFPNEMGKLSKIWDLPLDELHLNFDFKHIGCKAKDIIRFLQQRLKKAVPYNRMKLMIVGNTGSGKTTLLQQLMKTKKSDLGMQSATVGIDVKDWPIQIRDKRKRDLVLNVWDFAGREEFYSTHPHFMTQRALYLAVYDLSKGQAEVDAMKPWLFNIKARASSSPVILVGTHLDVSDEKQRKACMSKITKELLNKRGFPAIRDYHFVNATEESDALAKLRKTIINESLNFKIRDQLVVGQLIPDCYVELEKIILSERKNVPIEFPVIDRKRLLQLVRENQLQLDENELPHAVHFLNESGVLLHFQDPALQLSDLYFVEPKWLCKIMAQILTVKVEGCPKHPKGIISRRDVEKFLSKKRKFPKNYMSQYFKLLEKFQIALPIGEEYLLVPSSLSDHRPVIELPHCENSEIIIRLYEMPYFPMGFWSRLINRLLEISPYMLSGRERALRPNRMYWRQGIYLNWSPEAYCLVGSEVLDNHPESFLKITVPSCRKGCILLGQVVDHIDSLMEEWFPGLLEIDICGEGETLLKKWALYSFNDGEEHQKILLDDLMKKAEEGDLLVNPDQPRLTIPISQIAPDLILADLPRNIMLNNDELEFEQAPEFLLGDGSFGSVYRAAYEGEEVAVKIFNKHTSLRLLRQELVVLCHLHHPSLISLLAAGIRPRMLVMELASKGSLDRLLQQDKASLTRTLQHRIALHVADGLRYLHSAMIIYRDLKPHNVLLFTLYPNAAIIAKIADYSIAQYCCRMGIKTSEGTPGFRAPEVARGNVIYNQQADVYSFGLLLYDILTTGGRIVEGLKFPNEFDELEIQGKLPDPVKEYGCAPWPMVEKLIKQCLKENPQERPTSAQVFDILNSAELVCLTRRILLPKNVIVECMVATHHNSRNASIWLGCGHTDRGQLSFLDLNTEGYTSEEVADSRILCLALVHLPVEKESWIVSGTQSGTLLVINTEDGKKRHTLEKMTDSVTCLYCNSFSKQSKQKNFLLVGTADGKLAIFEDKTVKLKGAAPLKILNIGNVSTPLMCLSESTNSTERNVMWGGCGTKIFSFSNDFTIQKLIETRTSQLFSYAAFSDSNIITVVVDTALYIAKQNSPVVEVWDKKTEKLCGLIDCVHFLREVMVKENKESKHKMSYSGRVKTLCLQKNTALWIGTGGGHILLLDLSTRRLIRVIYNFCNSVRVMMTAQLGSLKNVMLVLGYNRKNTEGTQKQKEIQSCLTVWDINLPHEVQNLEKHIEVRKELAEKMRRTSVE

Structure (SMILES)	LRRK2 pIC50	IC50
Cc1c(Nc2ncc3cc(Cl)c(C4CCN(C[C@]5(O)C[C@H](C#N)C5)CC4)cc3n2)cnn1C1CC1 [Ex-4.229, trans-3-[(4-{6-chloro-2-[(1-cyclopropyl-5-methyl-1H-pyrazol-4-yl)amino]quinazolin-7-yl}piperidin-1-yl)methyl]-3-hydroxycyclobutane-1-carbonitrile]	8.95	–
CO[C@H]1COC[C@H]1N1CC[C@@H](c2cc3nc(Nc4cnn(C5CC5)c4Cl)ncc3cc2C)[C@H](F)C1 (single isomer, unassigned) [Ex-4.248, (3S,4S)(3S,4S) or (3S,4S)(3R,4R) or (3R,4R)(3S,4S) or (3R,4R)(3R,4R)N-(5-chloro-1-cyclopropyl-1H-pyrazol-4-yl)-7-[3-fluoro-1-(4-methoxyoxolan-3-yl)piperidin-4-yl]-6-methylquinazolin-2-amine]	>9.20	–
C[C@H]1CC(c2cc3nc(Nc4cnn(C5CC5)c4Cl)ncc3cc2Cl)CCN1C1COC1 (single isomer, unassigned) [Ex-1.12, (S) or (R) 6-chloro-N-(5-chloro-1-cyclopropyl-1H-pyrazol-4-yl)-7-(2-methyl-1-(oxetan-3-yl)piperidin-4-yl)quinazolin-2-amine]	–	0.741 nM
Cc1cc2cnc(Nc3cnn(C4(C)CC4)c3Cl)nc2cc1C1CCN(CCC#N)CC1 [Ex-5.2, 3-(4-(2-((5-chloro-1-(1-methylcyclopropyl)-1H-pyrazol-4-yl)amino)-6-methylquinazolin-7-yl)piperidin-1-yl)propanenitrile]	>9.20	–
OC1COCC1n1ncc(Nc2ncc3cc(Cl)c(C4CCN(C5COC5)CC4)cc3n2)c1Cl (single isomer, unassigned) [Ex-2.47, (3S,4S) or (3R,4R) or (3S,4R) or (3R,4S) 4-[5-chloro-4-({6-chloro-7-[1-(oxetan-3-yl)piperidin-4-yl]quinazolin-2-yl}amino)-1H-pyrazol-1-yl]oxolan-3-ol]	9.11	–
Cc1c(Nc2ncc3cc(Cl)c(C4CCN(CC(O)CC(F)(F)F)CC4)cc3n2)cnn1C1CC1 (single isomer, unassigned) [Ex-4.191, (S) or (R) 1-(4-{6-chloro-2-[(1-cyclopropyl-5-methyl-1H-pyrazol-4-yl)amino]quinazolin-7-yl}piperidin-1-yl)-4,4,4-trifluorobutan-2-ol]	–	< 0.631 nM
F[C@@H]1CNCC[C@H]1c1cc2nc(Nc3cnn(C4CC4)c3Cl)ncc2cc1Cl (single isomer, unassigned) [Ex-4.2, (3S,4S) or (3R,4R) 6-chloro-N-(5-chloro-1-cyclopropyl-1H-pyrazol-4-yl)-7-(3-fluoropiperidin-4-yl)quinazolin-2-amine]	–	< 0.631 nM
CC1(n2ncc(Nc3ncc4cc(Cl)c(C5CCN(C6COC6)C5)cc4n3)c2Cl)CC1 (single isomer, unassigned) [Ex-4.26, (S) or (R) 6-chloro-N-[5-chloro-1-(1-methylcyclopropyl)-1H-pyrazol-4-yl]-7-[1-(oxetan-3-yl)pyrrolidin-3-yl]quinazolin-2-amine]	–	4.9 nM
Cc1nsc(Nc2ncc3cc(Cl)c(C4CCN(C5COC5)CC4)cc3n2)c1Cl [Ex-8.5, 6-chloro-N-(4-chloro-3-methyl-1,2-thiazol-5-yl)-7-[1-(oxetan-3-yl)piperidin-4-yl]quinazolin-2-amine]	>9.20	–
Cc1c(Nc2ncc3cc(Cl)c(C4CCN(C[C@H](O)c5c(F)cccc5F)CC4)cc3n2)cnn1C1CC1 [Ex-4.208, (1R)-2-(4-{6-chloro-2-[(1-cyclopropyl-5-methyl-1H-pyrazol-4-yl)amino]quinazolin-7-yl}piperidin-1-yl)-1-(2,6-difluorophenyl)ethan-1-ol]	7.96	–
[2H]C1([2H])OC([2H])([2H])C1([2H])N1CCC(c2cc3nc(Nc4cnn(CC(C)(C)O)c4Cl)ncc3cc2Cl)CC1 [Ex-4.58, 1-(5-chloro-4-((6-chloro-7-(1-(oxetan-3-yl-d5)piperidin-4-yl)quinazolin-2-yl)amino)-1H-pyrazol-1-yl)-2-methylpropan-2-ol]	>9.20	–
Cc1nsc(Nc2ncc3cc(Cl)c([C@@H]4CCN(C5COC[C@@H]5O)C[C@H]4F)cc3n2)c1Cl (single isomer, unassigned) [Ex-4.120, (3S,4S)(3S,4S) or (3S,4S)(3R,4R) or (3R,4R)(3S,4S) or (3R,4R)(3R,4R) 4-{6-chloro-2-[(4-chloro-3-methyl-1,2-thiazol-5-yl)amino]quinazolin-7-yl}-3-fluoropiperidin-1-yl]oxolan-3-ol]	7.65	–
Cc1cc2cnc(Nc3cnn(C45CC(C4)C5)c3C)nc2cc1[C@@H]1CCN([C@H]2COC[C@H]2O)C[C@H]1F (single isomer, unassigned) [Ex-4.164, (3S,4S)(3S,4S) or (3S,4S)(3R,4R) or (3R,4R)(3S,4S) or (3R,4R)(3R,4R) 4-[4-(2-{[1-(bicyclo[1.1.1]pentan-1-yl)-5-methyl-1H-pyrazol-4-yl]amino}-6-methylquinazolin-7-yl)-3-fluoropiperidin-1-yl]oxolan-3-ol]	>9.20	–
Cc1cc2cnc(Nc3cnn(C)c3Cl)nc2cc1C1CCN([C@@H]2COC[C@@H]2O)CC1 (single isomer, unassigned) [Ex-2.78, (3S,4S) or (3R,4R) 4-(4-{2-[(5-chloro-1-methyl-1H-pyrazol-4-yl)amino]-6-methylquinazolin-7-yl}piperidin-1-yl)oxolan-3-ol]	>9.20	–
CC(C)(O)CN1CCC(c2cc3nc(Nc4cnn(C5CC5)c4)ncc3cc2Cl)C1 (single isomer, unassigned) [Ex-1.9, (S) or (R) 1-(3-{6-chloro-2-[(1-cyclopropyl-1H-pyrazol-4-yl)amino]quinazolin-7-yl}pyrrolidin-1-yl)-2-methylpropan-2-ol]	–	30.2 nM
C[C@@]1(N2CCC(c3cc4nc(Nc5cnn(C6CC6)c5C(F)F)ncc4cc3Cl)CC2)COC[C@@H]1O (single isomer, unassigned) [Ex-2.91, (3S,4S) or (3R,4R) 4-[4-(6-chloro-2-{[1-cyclopropyl-5-(difluoromethyl)-1H-pyrazol-4-yl]amino}quinazolin-7-yl)piperidin-1-yl]-4-methyloxolan-3-ol]	>9.20	–
Cc1cc2cnc(Nc3cnn(C4CC4)c3Cl)nc2cc1[C@@H]1CCN(C2COC[C@H]2O)C[C@H]1F (single isomer, unassigned) [Ex-4.136, (3S,4S)(3S,4S) or (3S,4S)(3R,4R) or (3R,4R)(3S,4S) or (3R,4R)(3R,4R) 4-(4-{2-[(5-chloro-1-cyclopropyl-1H-pyrazol-4-yl)amino]-6-methylquinazolin-7-yl}-3-fluoropiperidin-1-yl)oxolan-3-ol]	8.41	–
Cc1c(Nc2ncc3cc(Cl)c(C4CCN(CC(O)c5ccc(Cl)cc5)CC4)cc3n2)cnn1C1CC1 (single isomer, unassigned) [Ex-4.224, (S) or (R) 2-(4-{6-chloro-2-[(1-cyclopropyl-5-methyl-1H-pyrazol-4-yl)amino]quinazolin-7-yl}piperidin-1-yl)-1-(4-chlorophenyl)ethan-1-ol]	–	13.8 nM
N#Cc1cc2cnc(Nc3cnn(C4CC4(F)F)c3Cl)nc2cc1[C@H]1CCN(C2COC2)C[C@@H]1F (single isomer, unassigned) [Ex-6.7, (R)(3S,4S) or (S)(3S,4S) or (R)(3R,4R) or (S)(3R,4R) 2-((5-chloro-1-(2,2-difluorocyclopropyl)-1H-pyrazol-4-yl)amino)-7-(3-fluoro-1-(oxetan-3-yl)piperidin-4-yl)quinazoline-6-carbonitrile]	9.01	–
COC[C@]12C[C@](n3ncc(Nc4ncc5cc(Cl)c(C6CCN(C7(C)COC7)CC6)cc5n4)c3Cl)(C1)C2 [Ex-8.40]	>9.20	–
CO[C@H]1COC[C@H]1N1CC[C@@H](c2cc3nc(Nc4cnn(C5CC5)c4Cl)ncc3cc2C)[C@H](F)C1 (single isomer, unassigned) [Ex-4.261, (3S,4S)(3S,4S) or (3S,4S)(3R,4R) or (3R,4R)(3S,4S) or (3R,4R)(3R,4R) N-(5-chloro-1-cyclopropyl-1H-pyrazol-4-yl)-7-[3-fluoro-1-(4-methoxyoxolan-3-yl)piperidin-4-yl]-6-methylquinazolin-2-amine]	7.51	–
CC1OCC1N1CC[C@H](c2cc3nc(Nc4cnn(CC(C)(C)O)c4Cl)ncc3cc2Cl)[C@@H](F)C1 (single isomer, unassigned) [Ex-4.73, (3S,4S)(2R,3R) or (3S,4S)(2S,3S) or (3R,4R)(2R,3R) or (3R,4R)(2S,3S) or (3R,4R)(2S,3R) or (3R,4R)(2R,3S) or (3S,4S)(2S,3R) or (3S,4S)(2R,3S) 1-[5-chloro-4-({6-chloro-7-[3-fluoro-1-(2-methyloxetan-3-yl)piperidin-4-yl]quinazolin-2-yl}amino)-1H-pyrazol-1-yl]-2-methylpropan-2-ol]	9.13	–
CC(C)(Cn1ncc(Nc2ncc3cc(Cl)c(C4CCN(C5COC5)CC4)cc3n2)c1Cl)OC(F)F [Ex-2.13, 6-chloro-N-{5-chloro-1-[2-(difluoromethoxy)-2-methylpropyl]-1H-pyrazol-4-yl}-7-[1-(oxetan-3-yl)piperidin-4-yl]quinazolin-2-amine]	9.15	–
Cc1cc2cnc(Nc3cnn(C4CC4(F)F)c3Cl)nc2cc1[C@@H]1CCN(C2COC[C@@H]2O)C[C@H]1F (single isomer, unassigned) [Ex-4.137, (R)(3S,4S)(3S,4S) or (R)(3S,4S)(3R,4R) or (R)(3R,4R)(3S,4S) or (R)(3R,4R)(3R,4R) or (S)(3S,4S)(3S,4S) or (S)(3S,4S)(3R,4R) or (S)(3R,4R)(3S,4S) or (S)(3R,4R)(3R,4R) 4-[4-(2-{[5-chloro-1-(2,2-difluorocyclopropyl)-1H-pyrazol-4-yl]amino}-6-methylquinazolin-7-yl)-3-fluoropiperidin-1-yl]oxolan-3-ol]	>9.20	–
